# Literature values in PMC6287472 (International Journal for Parasitology: Drugs and Drug …, 2018).
# Key:
# Sm.5HTRL = target: T1, Sm.5HTRL (Schistosoma mansoni, UniProt A0A173FEI8); conditions: ref Chan et al., 2018; cited from earlier work
# T1 sequence (A0A173FEI8 1-547): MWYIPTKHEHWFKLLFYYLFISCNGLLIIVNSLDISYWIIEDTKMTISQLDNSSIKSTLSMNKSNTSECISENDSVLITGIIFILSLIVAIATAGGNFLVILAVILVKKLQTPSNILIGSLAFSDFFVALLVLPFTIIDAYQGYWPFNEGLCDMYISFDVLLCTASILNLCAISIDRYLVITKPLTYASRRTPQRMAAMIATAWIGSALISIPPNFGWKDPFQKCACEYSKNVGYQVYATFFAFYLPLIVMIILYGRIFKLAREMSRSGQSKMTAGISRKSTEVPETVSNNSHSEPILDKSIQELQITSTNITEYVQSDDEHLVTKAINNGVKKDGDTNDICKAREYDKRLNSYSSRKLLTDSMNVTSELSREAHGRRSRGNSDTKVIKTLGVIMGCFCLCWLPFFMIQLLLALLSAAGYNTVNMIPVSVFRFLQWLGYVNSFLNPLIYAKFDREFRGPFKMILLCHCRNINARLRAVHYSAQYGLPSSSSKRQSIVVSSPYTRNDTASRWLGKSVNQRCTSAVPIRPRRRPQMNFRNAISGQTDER
# human 5-HT7 receptor = conditions: ref Wacker et al., 2013; cited from earlier work
smiles,measurement,setting,value
CN1C[C@H](C(=O)N[C@]2(C)O[C@@]3(O)[C@@H]4CCCN4C(=O)[C@H](Cc4ccccc4)N3C2=O)C=C2c3cccc4[nH]cc(c34)C[C@H]21 [ergotamine],activity at Sm.5HTRL (in words),Sm.5HTRL,full agonist
same,activity at human 5-HT7 receptor (in words),human 5-HT7 receptor,potent antagonist
